From article PMC5504357, “Antifungal Potential of Copper(II), Manganese(II) and Silver(I) 1,10-Phenanthroline Chelates Against Multidrug-Resistant Fungal Species Forming the Candida haemulonii Complex: Impact on the Planktonic and Biofilm Lifestyles” (Frontiers in Microbiology, 2017)

Assays:
Candida duobushaemulonii [1] = assay: Planktonic growth, broth microdilution (CLSI M27-A3), MIC; type: cell-based; conditions: for GM-MIC: geometric mean of three C. duobushaemulonii isolates; for MIC: planktonic, 48 h, 37°C
Source text: (§1) Three clinical isolates of each species that form the C. haemulonii complex were used in this study: C. haemulonii (LIPCh4 from finger nail, LIPCh7 from toe nail, and LIPCh12 from blood), C. duobushaemulonii (LIPCh1 from finger nail, LIPCh6 from toe nail, and LIPCh8 from blood) and C. haemulonii var. vulnera (LIPCh5 from toe nail, LIPCh9 from urine, and LIPCh11 from blood) (Ramos et al., [2015]). The fungal isolates were identified by the automatized system VITEK® 2 and then characterized by ITS1-5.8S-ITS2 gene sequencing (Ramos et al., [2015]). Fungal cells were cultured in Sabouraud-dextrose medium under constant agitation (130 rpm) for 48 h at 37°C. Human lung adenocarcinoma A549 cells were maintained in culture flasks containing DMEM medium supplemented with 10% fetal bovine serum at 37°C in an atmosphere of 5% CO2.
(§2) Susceptibility profile assays were performed in accordance with the broth microdilution protocol described in the document M27-A3 published by the Clinical and Laboratory Standards Institutes (CLSI, [2008]). Samples of the test chelates were dissolved in DMSO (500 μL) and then serially diluted in a 96-well plate containing RPMI 1640 (Sigma-Aldrich, USA) to give the concentration range of 0.0625-32 mg/L. Aqueous solutions of the metal-free phen ligand and the simple metal salts, MnCl2, CuCl2, and AgNO3, were also screened over the same concentration range. Caspofungin (Sigma-Aldrich) was used as a classical antifungal agent able to block the growth of all clinical isolates of C. haemulonii species as previously reported by our research group (Ramos et al., [2015]). Water dilutions containing DMSO concentrations corresponding to those used to prepare the drug solutions were assessed in parallel. Untreated and compound-treated fungal cells were incubated at 37°C for 48 h and the minimal inhibitory concentration (MIC) was established as the lowest compound concentration where no cellular growth could be detected by visual inspection in accordance to the CLSI recommendation. The geometric mean of the MIC values (GM-MIC) of each compound against all the fungal isolates was calculated using the software, Microsoft Office Excel 2013.

[2] = test system: Candida haemulonii var. vulnera; assay: as above; type: cell-based; conditions: for GM-MIC: geometric mean of three C. haemulonii var. vulnera isolates; for MIC: planktonic, 48 h, 37°C
Source text: as §1, §2

Candida haemulonii [3] = assay: as above; type: cell-based; conditions: for GM-MIC: geometric mean of three C. haemulonii isolates; for MIC: planktonic, 48 h, 37°C
Source text: as §1, §2

C. haemulonii complex = assay: Planktonic growth, overall across all nine isolates; type: cell-based, Candida haemulonii complex; conditions: geometric mean across all nine strains; for MIC: in μM, read-out: Overall GM-MIC
Source text: as §1, §2

A549 cells = assay: Mammalian cell toxicity (MTT assay) and selectivity index; type: cell-based, Human; conditions: MTT, 48 h incubation
Source text: as §1
The cytotoxicity was evaluated using the MTT [3-(4,5-dimethylthiazol-2-yl)-2,5-diphenyl tetrazolium bromide] (Sigma-Aldrich) assay (Mosmann, [1983]). A549 cells (10^4) were seeded into tissue culture plates (TPP, Switzerland) and cultured for 24 h at 37°C in a 5% CO2 in order to obtain cellular confluence. The wells were then washed twice with DMEM to remove non-adherent cells and the test compounds were added (in concentrations ranging from 0.0313 to 512 μg/mL) to plates containing DMEM, followed by a 48 h incubation period under the same conditions mentioned above. The cellular viability was evaluated by adding MTT to each well and incubating the plates in the dark for 3 h, allowing the viable cells containing active mitochondrial dehydrogenase enzymes to metabolize MTT-tetrazolium salt into purple formazan. The formazan crystals were then dissolved in DMSO (100 μL) and the absorbance (450 nm) measured using a Thermomax Molecular Device microplate reader. The concentration capable of reducing cellular viability by 50% (CC50) was calculated, and the selectivity index (SI) determined using the following equation: A549 CC50/C. haemulonii complex GM-MIC.

Candida duobushaemulonii [4] = assay: Biofilm-growing cells, XTT assay, bMIC; type: cell-based; conditions: for GM-bMIC: geometric mean, C. duobushaemulonii isolates; for bMIC: mature biofilm, 48 h, 50% inhibition of metabolic activity
Experimental: (§3) The effect of the compounds on biofilm-growing cells was determined using the previously described microtiter-based technique (Ramage et al., [2001]). The fungi (10^6 yeast cells) were incubated for 48 h at 37°C in 96-well polystyrene microtiter plates (Corning®, Corning Incorporated, USA) containing Sabouraud-dextrose broth to accommodate biofilm formation. Following biofilm formation, the culture medium was aspirated and non-adherent cells removed by thoroughly washing the wells three times with sterile PBS (0.15 M NaCl, 0.01 M phosphate buffer, pH 7.2). Afterwards, the compounds, at the same concentrations used in the planktonic assays, were added to the wells, and the plates were incubated for further 48 h at 37°C. The metabolic activity was then evaluated using a colorimetric assay that measures the metabolic reduction of 2,3-bis (2-methoxy-4-nitro-5-sulfophenyl)-5-[(phenylamino) carbonyl]-2H-tetrazolium hydroxide (XTT; Sigma-Aldrich) to a water-soluble, brown formazan product (Peeters et al., [2008]). The biofilm MIC (bMIC) for each compound was established as the minimal concentration capable of inhibiting 50% of metabolic activity when compared to compound-free wells (Ziccardi et al., [2015]).

[5] = test system: Candida haemulonii var. vulnera; assay: Biofilm-growing cells, XTT assay, bMIC; type: cell-based; conditions: for GM-bMIC: geometric mean, C. haemulonii var. vulnera isolates; for bMIC: mature biofilm, 48 h, 50% inhibition of metabolic activity
Experimental: as §3

Candida haemulonii [6] = assay: Biofilm-growing cells, XTT assay, bMIC; type: cell-based; conditions: for GM-bMIC: geometric mean, C. haemulonii isolates, values marked * do not include LIP Ch4 (>512); for bMIC: mature biofilm, 48 h, 50% inhibition of metabolic activity
Experimental: as §3

[7] = test system: Candida haemulonii complex; assay: Biofilm-growing cells, overall across isolates; type: cell-based; conditions: for Overall GM-bMIC: geometric mean across strains, values marked * do not include LIP Ch4 (>512)
Experimental: as §3

| SMILES | GM-MIC (Candida duobushaemulonii [1]) [µg/mL] | MIC (Candida duobushaemulonii [1]; isolate LIP Ch1) [µg/mL] | MIC (Candida duobushaemulonii [1]; isolate LIP Ch6) [µg/mL] | MIC (Candida duobushaemulonii [1]; isolate LIP Ch8) [µg/mL] | GM-MIC [2] [µg/mL] | MIC ([2]; isolate LIP Ch5) [µg/mL] | MIC ([2]; isolate LIP Ch9) [µg/mL] | MIC ([2]; isolate LIP Ch11) [µg/mL] | GM-MIC (Candida haemulonii [3]) [µg/mL] | MIC (Candida haemulonii [3]; isolate LIP Ch4) [µg/mL] | MIC (Candida haemulonii [3]; isolate LIP Ch7) [µg/mL] | MIC (Candida haemulonii [3]; isolate LIP Ch12) [µg/mL] | Overall GM-MIC (C. haemulonii complex) [µg/mL] | MIC (C. haemulonii complex) [µM] | A549 (CC50) (A549 cells) [µg/mL] | GM-bMIC (Candida duobushaemulonii [4]) [mg/L] | bMIC (Candida duobushaemulonii [4]; isolate LIP Ch1) [mg/L] | GM-bMIC [5] [mg/L] | bMIC ([5]; isolate LIP Ch9) [mg/L] | bMIC ([5]; isolate LIP Ch13) [mg/L] | other results |
| --- | --- | --- | --- | --- | --- | --- | --- | --- | --- | --- | --- | --- | --- | --- | --- | --- | --- | --- | --- | --- | --- |
| [Ag+].[O-][Cl+3]([O-])([O-])[O-].c1cnc2c(c1)ccc1cccnc12.c1cnc2c(c1)ccc1cccnc12 [compound 17, [Ag(phen)2]ClO4] | 1.59 | 2 | 1 | 2 | 0.63 | 1 | 0.5 | 0.5 | 1 | 1 | 1 | 1 | 1 | 1.76 | 2.07 | 10.08 | 16 | 8 | 0.5 | 8 | GM-bMIC (Candida haemulonii [6]): 20.16 mg/L; bMIC (Candida haemulonii [6]; isolate LIP Ch4): 32 mg/L; bMIC (Candida haemulonii [6]; isolate LIP Ch7): 32 mg/L; bMIC (Candida haemulonii [6]; isolate LIP Ch14): 8 mg/L; decrease in activity on going from planktonic to biofilm cells ([7]; biofilm MIC versus planktonic MIC): 12.3 fold; Overall GM-bMIC ([7]; in μM): 21.73 µM; Overall GM-bMIC [7]: 12.34 mg/L |
| O.O.O.O.O.O.O.O.O.O.O.O.O.O.O.O.O=C([O-])c1cccc(C(=O)[O-])c1.O=C([O-])c1cccc(C(=O)[O-])c1.[Mn+2].[Mn+2].c1cnc2c(c1)ccc1cccnc12.c1cnc2c(c1)ccc1cccnc12.c1cnc2c(c1)ccc1cccnc12.c1cnc2c(c1)ccc1cccnc12.c1cnc2c(c1)ccc1cccnc12 [compound 11, {[Mn(phen)2(H2O)2]}2(isoph)2(phen).12H2O] | 2.52 | 2 | 4 | 2 | 2.52 | 4 | 2 | 2 | 2.52 | 4 | 2 | 2 | 2.52 | 1.54 | 251.76 | 6.35 | 8 | 8 | 4 | 8 | bMIC (Candida duobushaemulonii [4]; isolate LIP Ch6): 8 mg/L; bMIC (Candida duobushaemulonii [4]; isolate LIP Ch8): 4 mg/L; bMIC ([5]; isolate LIP Ch5): 16 mg/L; GM-bMIC (Candida haemulonii [6]): 16^* mg/L; bMIC (Candida haemulonii [6]; isolate LIP Ch4): >512 mg/L; bMIC (Candida haemulonii [6]; isolate LIP Ch7): 8 mg/L; bMIC (Candida haemulonii [6]; isolate LIP Ch14): 32 mg/L; Overall GM-bMIC [7]: 8.72 mg/L |
| O.O.O.O.O.O=C([O-])c1ccc(C(=O)[O-])cc1.[Mn+2].c1cnc2c(c1)ccc1cccnc12.c1cnc2c(c1)ccc1cccnc12 [compound 12, [Mn(tereph)(phen)2].5H2O] | 4 | 4 | 4 | 4 | 4 | 4 | 4 | 4 | 4 | 4 | 4 | 4 | 4 | 5.96 | 251.94 | 16 | 32 | 5.04 | 4 | 16 | bMIC (Candida duobushaemulonii [4]; isolate LIP Ch6): 8 mg/L; bMIC (Candida duobushaemulonii [4]; isolate LIP Ch8): 16 mg/L; bMIC ([5]; isolate LIP Ch5): 2 mg/L; GM-bMIC (Candida haemulonii [6]): 16^* mg/L; bMIC (Candida haemulonii [6]; isolate LIP Ch4): >512 mg/L; bMIC (Candida haemulonii [6]; isolate LIP Ch7): 16 mg/L; bMIC (Candida haemulonii [6]; isolate LIP Ch14): 16 mg/L; Overall GM-bMIC ([7]; in μM): 15.48 µM; Overall GM-bMIC [7]: 10.37 mg/L |
